Numbers after ± are expanded uncertainties.
Assay: mn = molality of the nth substance listed, in mol/kg
Conditions: 100 kPa, Liquid; for viscosity: Capillary tube (Ostwald / Ubbelohde) method; for mass density: Pycnometric method

NCCCNCCCN [bis(3-aminopropyl)amine] + O gave a viscosity (298 K, m1 = 0.102) of 0.95 ± 0.02 mPa·s, a viscosity (298 K, m1 = 0.313) of 1.07 ± 0.02 mPa·s and a viscosity (298 K, m1 = 0.537) of 1.23 ± 0.02 mPa·s. The viscosity (298 K, m1 = 0.773) was 1.41 ± 0.02 mPa·s, the viscosity (298 K, m1 = 1.024) was 1.57 ± 0.03 mPa·s and the viscosity (298 K, m1 = 1.291) was 1.74 ± 0.03 mPa·s. The mass density (298 K, m1 = 0.102) was 997.56 ± 4.2 kg/m3, the mass density (298 K, m1 = 0.313) was 997.47 ± 4.2 kg/m3 and the mass density (298 K, m1 = 0.537) was 997.32 ± 4.2 kg/m3. The mass density (298 K, m1 = 0.773) was 997.12 ± 4.2 kg/m3, the mass density (298 K, m1 = 1.024) was 996.9 ± 4.2 kg/m3 and the mass density (298 K, m1 = 1.291) was 996.71 ± 4.2 kg/m3. It also gave a viscosity (303 K, m1 = 0.102) of 0.84 ± 0.02 mPa·s, a viscosity (303 K, m1 = 0.313) of 0.95 ± 0.02 mPa·s and a viscosity (303 K, m1 = 0.537) of 1.09 ± 0.02 mPa·s. The viscosity (303 K, m1 = 0.773) was 1.24 ± 0.02 mPa·s, the viscosity (303 K, m1 = 1.024) was 1.39 ± 0.02 mPa·s and the viscosity (303 K, m1 = 1.291) was 1.55 ± 0.03 mPa·s. For the same compound, the mass density (303 K, m1 = 0.102) was 996.21 ± 4.2 kg/m3, the mass density (303 K, m1 = 0.313) was 996.12 ± 4.2 kg/m3 and the mass density (303 K, m1 = 0.537) was 995.98 ± 4.2 kg/m3. The mass density (303 K, m1 = 0.773) was 995.83 ± 4.2 kg/m3, the mass density (303 K, m1 = 1.024) was 995.67 ± 4.2 kg/m3 and the mass density (303 K, m1 = 1.291) was 995.53 ± 4.2 kg/m3. The viscosity (308 K, m1 = 0.102) was 0.76 ± 0.02 mPa·s, the viscosity (308 K, m1 = 0.313) was 0.85 ± 0.02 mPa·s and the viscosity (308 K, m1 = 0.537) was 0.98 ± 0.02 mPa·s. The viscosity (308 K, m1 = 0.773) was 1.1 ± 0.02 mPa·s, the viscosity (308 K, m1 = 1.024) was 1.24 ± 0.02 mPa·s and the viscosity (308 K, m1 = 1.291) was 1.38 ± 0.02 mPa·s. For the same compound, the mass density (308 K, m1 = 0.102) was 994.48 ± 4.2 kg/m3, the mass density (308 K, m1 = 0.313) was 994.37 ± 4.2 kg/m3 and the mass density (308 K, m1 = 0.537) was 994.17 ± 4.2 kg/m3. The mass density (308 K, m1 = 0.773) was 994 ± 4.2 kg/m3, the mass density (308 K, m1 = 1.024) was 993.82 ± 4.2 kg/m3 and the mass density (308 K, m1 = 1.291) was 993.64 ± 4.2 kg/m3. The viscosity (313 K, m1 = 0.102) was 0.69 ± 0.02 mPa·s, the viscosity (313 K, m1 = 0.313) was 0.77 ± 0.02 mPa·s and the viscosity (313 K, m1 = 0.537) was 0.88 ± 0.02 mPa·s. It also gave a viscosity (313 K, m1 = 0.773) of 0.99 ± 0.02 mPa·s, a viscosity (313 K, m1 = 1.024) of 1.11 ± 0.02 mPa·s and a viscosity (313 K, m1 = 1.291) of 1.23 ± 0.02 mPa·s. It also gave a mass density (313 K, m1 = 0.102) of 992.55 ± 4.2 kg/m3, a mass density (313 K, m1 = 0.313) of 992.43 ± 4.2 kg/m3 and a mass density (313 K, m1 = 0.537) of 992.27 ± 4.2 kg/m3. It also gave a mass density (313 K, m1 = 0.773) of 992.1 ± 4.2 kg/m3, a mass density (313 K, m1 = 1.024) of 991.92 ± 4.2 kg/m3 and a mass density (313 K, m1 = 1.291) of 991.73 ± 4.2 kg/m3. For the same compound, the viscosity (318 K, m1 = 0.102) was 0.61 ± 0.02 mPa·s, the viscosity (318 K, m1 = 0.313) was 0.69 ± 0.02 mPa·s and the viscosity (318 K, m1 = 0.537) was 0.8 ± 0.02 mPa·s. For the same compound, the viscosity (318 K, m1 = 0.773) was 0.9 ± 0.02 mPa·s, the viscosity (318 K, m1 = 1.024) was 1 ± 0.02 mPa·s and the viscosity (318 K, m1 = 1.291) was 1.11 ± 0.02 mPa·s. The mass density (318 K, m1 = 0.102) was 990.18 ± 4.2 kg/m3, the mass density (318 K, m1 = 0.313) was 989.94 ± 4.2 kg/m3 and the mass density (318 K, m1 = 0.537) was 989.71 ± 4.2 kg/m3. It also gave a mass density (318 K, m1 = 0.773) of 989.48 ± 4.2 kg/m3, a mass density (318 K, m1 = 1.024) of 989.3 ± 4.2 kg/m3 and a mass density (318 K, m1 = 1.291) of 989.09 ± 4.2 kg/m3. It also gave a viscosity (323 K, m1 = 0.102) of 0.55 ± 0.02 mPa·s, a viscosity (323 K, m1 = 0.313) of 0.63 ± 0.02 mPa·s and a viscosity (323 K, m1 = 0.537) of 0.73 ± 0.02 mPa·s. It also gave a viscosity (323 K, m1 = 0.773) of 0.81 ± 0.02 mPa·s, a viscosity (323 K, m1 = 1.024) of 0.9 ± 0.02 mPa·s and a viscosity (323 K, m1 = 1.291) of 0.98 ± 0.02 mPa·s. For the same compound, the mass density (323 K, m1 = 0.102) was 987.58 ± 4.2 kg/m3, the mass density (323 K, m1 = 0.313) was 987.36 ± 4.2 kg/m3 and the mass density (323 K, m1 = 0.537) was 987.13 ± 4.2 kg/m3. It also gave a mass density (323 K, m1 = 0.773) of 986.93 ± 4.2 kg/m3, a mass density (323 K, m1 = 1.024) of 986.74 ± 4.2 kg/m3 and a mass density (323 K, m1 = 1.291) of 986.55 ± 4.2 kg/m3.

Source: the NIST ThermoML archive (doi:10.1021/acs.jced.5b00922)
